Results from patent US9895321B2, “Vaccines, methods of administering vaccines, methods and products for treating and/or delaying onset of dysplastic lesions, and wafers for oral administration” (AKTIV-DRY LLC, priority 2010, dated 2018).

Experiments:
[1] = format: physicochemical
From the text: In certain embodiments of the invention, the dry powder compositions may comprise myo-inositol (cis-1,2,3,5-trans-4,6-cyclohexanehexyl). Dry powder compositions comprising myo-inositol are disclosed in the Sievers et al U.S. Patent Application No. 2008/0035143 A1, incorporated herein in its entirety, although other myo-inositol dry powder compositions, including those generally and/or specifically disclosed herein are also suitable for use in embodiments of the present invention. Dry powder compositions comprising myo-inositol may optionally further include one or more of amino acids, for example, arginine, alanine, histidine, leucine, and/or methionine, surfactants, for example, palmitic acid, stearic acid, Tween 20, Tween 80, and/or Pluronic F68, stabilizers, buffers, for example, tricine, sodium or potassium phosphate, sodium acetate, and/or sodium citrate, metal chelating agents, for example EDTA and/or DTPA, gelatin, albumin, or the like. In one specific embodiment, myo-inositol and leucine are employed in a 98.5:1.5 weight ratio. Advantageously, myo-inositol dry powder compositions containing one or more additional components are provided using the CAN-BD process. It has been discovered that when pure myo-inositol is processed by the CAN-BD process at a temperature of about 50° C., a crystal polymorph which is different from the common crystal polymorph of native myo-inositol forms. This polymorph has an exothermic transition with onset of 110-130° C. and appears to be thermally stable at room temperature for only short periods of time (less than 2 weeks), but remains for longer periods of time when stored at temperatures of 2-8° C. (for at least 3 months and up to 5 months), and is removed by annealing at 115° C. or above. The moisture content of this new polymorph is very low (0.1% water) and identical to the moisture content of native myo-inositol. The X-ray diffraction pattern of this polymorph differs from those of native myo-inositol and a previously disclosed myo-inositol dihydrate (Bonnet 2006). […]

[2] = tested on: dysplastic lesions; conditions: three months, cited from earlier work
[3] = tested on: P13K; conditions: conclusion of Gustafson et al; cited from earlier work

Structure (SMILES)	period of thermal stability [1]	moisture content ([1]; new polymorph, identical to native myo-inositol) [% water]	period for which the polymorph remains ([1]; stored at 2-8° C.)	maximum tolerated dose ([2]; oral administration to the gastrointestinal tract) [grams per day]	regression in dysplastic lesions ([2]; oral, mild to moderate airway dysplasia)	P13K inhibition [3]
O[C@H]1[C@H](O)[C@@H](O)[C@H](O)[C@@H](O)[C@H]1O [crystal polymorph, myo-inositol]	less than 2 weeks	0.1	at least 3 months	–	–	–
O[C@H]1[C@H](O)[C@@H](O)[C@H](O)[C@@H](O)[C@H]1O [myo-inositol, cis-1,2,3,5-trans-4,6-cyclohexanehexyl]	–	–	–	18	significant regression	P13K inhibitor
